Data: DBAASP
Values after ≈ are worked out from the molar mass of the structure shown. Values joined by “and” are separate entries in the source; they are usually repeats but may differ in a detail not shown here. Identical values can stand only once. Values belong to the compound of their own block, whether it stands above or below them.

Experiments:
Test in all cases: ≥ marks a high value that may be exact or a test limit, other limits are often not marked, values filed in µg/mL are converted to µM
[1] = system: Bacillus subtilis
[2] = system: Staphylococcus aureus 8530
[3] = system: Escherichia coli W160-37
[4] = system: Pseudomonas putida NCIM 2102
[5] = system: Enterococcus faecalis NCTC 12697
[6] = system: Candida albicans NCTC 1467
[7] = system: Candida albicans ATCC 10231
[8] = system: Bacillus subtilis ATCC 23857
[9] = system: Staphylococcus aureus ATCC 12493
[10] = system: Staphylococcus aureus ATCC 25923
[11] = system: Escherichia coli
[12] = system: Staphylococcus aureus NCTC 10788
[13] = system: Bacillus cereus ATCC 11778
[14] = system: Escherichia coli ATCC 25922
[15] = system: Klebsiella pneumoniae ATCC 700603
[16] = system: Salmonella enterica subsp. enterica serovar Enteritidis ATCC 13076
[17] = system: Listeria monocytogenes ATCC 15313
[18] = system: Escherichia coli NCTC 10418
[19] = system: Pseudomonas aeruginosa ATCC 27853
[20] = system: Enterococcus faecalis ATCC 29212
[21] = system: Escherichia coli DH5alpha
[22] = system: Pseudomonas syringae EPS 94
[23] = system: Aspergillus niger CECT 2694
[24] = system: Saccharomyces cerevisiae FY1679
[25] = system: Penicillium digitatum PHI-26
[26] = system: Erwinia amylovora PMV 6076
[27] = system: Xanthomonas vesicatoria 2133-2
[28] = system: Rhizopus stolonifer CECT 2344
[29] = system: Penicillium expansum EPS 26
[30] = system: Fusarium oxysporum f. sp. lycopersici ATCC 201829
[31] = system: Salmonella typhimurium DA22427
[32] = system: Bacillus subtilis ATCC 6633
[33] = system: Salmonella typhimurium DA23899
[34] = system: Micrococcus luteus NCIMB 13267
[35] = system: Staphylococcus aureus ATCC 6538
[36] = system: Escherichia coli K-12
[37] = system: Salmonella typhimurium DA6192
[38] = system: Pseudomonas aeruginosa CMCC 10104
[39] = system: Bacillus subtilis CMCC 63501
[40] = system: Escherichia coli CMCC 44102
[41] = system: Listeria monocytogenes ATCC 19115
[42] = system: Staphylococcus aureus CMCC 26003
[43] = system: Micrococcus luteus A270
[44] = system: Candida albicans MDM8
[45] = system: Escherichia coli SBS 363

MIC [1]: 10.5 µM (≈ 19.4 µg/mL)
MIC [2]: 16 µM (≈ 29.6 µg/mL)
MIC [3]: 21.4 µM (≈ 39.7 µg/mL)
MIC [4]: ≥ 108 µM
Compound: CC[C@H](C)[C@H](NC(=O)[C@H](CC(C)C)NC(=O)[C@H](C)NC(=O)[C@@H]1CCCN1C(=O)[C@H](CC(C)C)NC(=O)CN)C(=O)N[C@@H](CO)C(=O)N[C@@H](Cc1c[nH]c2ccccc12)C(=O)N[C@H](C(=O)N[C@@H](CCCCN)C(=O)N[C@@H](CCCN=C(N)N)C(=O)N[C@@H](CCCCN)C(=O)N[C@@H](CCCN=C(N)N)C(=O)N[C@@H](CCC(N)=O)C(=O)N[C@@H](CCC(N)=O)C(=O)NCC(N)=O)[C@@H](C)CC [GLPALISWIKRKRQQG]

MIC [5]: 8 µM (≈ 12.1 µg/mL)
MIC [6]: 4 µM (≈ 6.03 µg/mL)
MIC [7]: 8 µM (≈ 12.1 µg/mL)
MIC [8]: 4 µM (≈ 6.03 µg/mL)
MIC [9]: 4 µM (≈ 6.03 µg/mL)
MIC [10]: 4 µM (≈ 6.03 µg/mL)
MIC [11]: 4 µM (≈ 6.03 µg/mL)
MIC [12]: 2 µM (≈ 3.01 µg/mL)
MIC [13]: 4 µM and 8 µM
MIC [14]: 4 µM and 8 µM
MIC [15]: 8 µM (≈ 12.1 µg/mL)
MIC [16]: 4 µM (≈ 6.03 µg/mL)
MIC [17]: 4 µM (≈ 6.03 µg/mL)
MIC [18]: 4 µM (≈ 6.03 µg/mL)
MIC [19]: 8 µM and 16 µM
MIC [20]: ≥ 32 µM
Compound: CC[C@H](C)[C@H](NC(=O)[C@H](CCCCN)NC(=O)[C@H](CCCCN)NC(=O)[C@H](C)NC(=O)[C@@H](NC(=O)[C@H](C)NC(=O)[C@H](CC(C)C)NC(=O)[C@H](CC(C)C)NC(=O)[C@H](C)NC(=O)[C@H](CCCCN)NC(=O)[C@H](CC(C)C)NC(=O)[C@H](CC(N)=O)NC(=O)[C@@H](N)CC(C)C)C(C)C)C(=O)N[C@@H](CC(C)C)C(N)=O [LNLKALLAVAKKIL]

MIC [21]: 4 µM (≈ 5.43 µg/mL)
MIC [22]: 3.16 µM (≈ 4.29 µg/mL)
MIC [23]: 6.12 µM (≈ 8.31 µg/mL)
MIC [24]: 16 µM (≈ 21.7 µg/mL)
MIC [25]: 4 µM (≈ 5.43 µg/mL)
MIC [26]: 5.92 µM (≈ 8.03 µg/mL)
MIC [27]: 13.4 µM (≈ 18.2 µg/mL)
MIC [28]: 8.66 µM (≈ 11.8 µg/mL)
MIC [29]: 13.7 µM (≈ 18.6 µg/mL)
MIC [30]: 0.849 µM (≈ 1.15 µg/mL)
Compound: CC[C@H](C)[C@H](NC(=O)[C@H](CCCCN)NC(=O)[C@H](CCCCN)NC(=O)[C@H](Cc1ccccc1)NC(=O)[C@H](CC(C)C)NC(=O)[C@H](CCCCN)NC(=O)[C@@H](N)CCCCN)C(=O)N[C@@H](CC(C)C)C(=O)N[C@@H](CCCCN)C(=O)N[C@H](C(=O)N[C@@H](CC(C)C)C(N)=O)C(C)C [KKLFKKILKVL]

MIC [31]: 12 µM (≈ 30.9 µg/mL)
MIC [32]: 5 µM (≈ 12.9 µg/mL)
MIC [33]: 25 µM (≈ 64.3 µg/mL)
MIC [34]: 1 µM (≈ 2.57 µg/mL)
MIC [35]: > 100 µM
MIC [36]: 6 µM (≈ 15.4 µg/mL)
MIC [19]: 1.5 µM (≈ 3.86 µg/mL)
MIC [37]: 12 µM (≈ 30.9 µg/mL)
Compound: CC[C@H](C)[C@H](NC(=O)CNC(=O)[C@H](CC(N)=O)NC(=O)[C@H](CCCN=C(N)N)NC(=O)[C@@H](NC(=O)[C@H](CC(N)=O)NC(=O)[C@H](CCCN=C(N)N)NC(=O)CNC(=O)[C@H](CCSC)NC(=O)[C@H](CCCCN)NC(=O)[C@H](CCC(=O)O)NC(=O)[C@@H](NC(=O)[C@H](CCCCN)NC(=O)[C@H](CCCCN)NC(=O)[C@H](Cc1ccccc1)NC(=O)[C@@H](NC(=O)[C@H](CCCCN)NC(=O)[C@H](Cc1c[nH]c2ccccc12)NC(=O)[C@@H](N)CCCCN)C(C)C)[C@@H](C)CC)[C@@H](C)CC)C(=O)N[C@H](C(=O)N[C@@H](CCCCN)C(N)=O)C(C)C [KWKVFKKIEKMGRNIRNGIVK]

MIC [38]: ≥ 105 µM
MIC [39]: 26.2 µM (≈ 64 µg/mL)
MIC [40]: ≥ 105 µM
MIC [41]: 13.1 µM (≈ 32 µg/mL)
MIC [42]: 13.1 µM (≈ 32 µg/mL)
Compound: CC[C@H](C)[C@H](NC(=O)[C@H](CCCN=C(N)N)NC(=O)[C@H](CCCN=C(N)N)NC(=O)[C@H](Cc1c[nH]c2ccccc12)NC(=O)[C@@H](N)Cc1ccccc1)C(=O)N[C@@H](CCCN=C(N)N)C(=O)N[C@H](C(=O)N[C@H](C(=O)N1CCC[C@H]1C(=O)N[C@H](C(=O)N[C@H](C(=O)N[C@@H](CC(N)=O)C(=O)N1CCC[C@H]1C(=O)N[C@@H](Cc1c[nH]c2ccccc12)C(=O)N[C@@H](Cc1ccccc1)C(=O)N[C@@H](CC(C)C)C(=O)N[C@@H](CCC(N)=O)C(=O)N[C@@H](CCC(N)=O)C(=O)N[C@H](C(N)=O)[C@@H](C)O)C(C)C)C(C)C)[C@@H](C)O)C(C)C [FWRRIRVTPVVNPWFLQQT]

MIC [43]: 1.56 µM (≈ 1.85 µg/mL)
MIC [44]: 1.56 µM (≈ 1.85 µg/mL)
MIC [45]: 3.12 µM (≈ 3.71 µg/mL)
Compound: CC[C@H](C)[C@H](NC(=O)[C@H](CC(C)C)NC(=O)[C@H](CCCCN)NC(=O)[C@H](CCCN=C(N)N)NC(=O)[C@H](Cc1ccccc1)NC(=O)[C@H](CC(C)C)NC(=O)[C@H](CO)NC(=O)[C@H](CC(C)C)NC(=O)[C@H](CC(C)C)NC(=O)[C@@H](N)CO)C(N)=O [SLLSLFRKLI]
